{"source": "patent US12295935B2", "about": "“Method for therapeutic treatment of rosacea” (Sol-Gel Technologies Ltd., priority 2019, dated 2025)", "origin": "cited, not measured here", "test_system": "rosacea", "conditions": "BPO as sole active agent", "data": [{"smiles": "O=C(OOC(=O)c1ccccc1)c1ccccc1", "note": "[BPO, Benzoyl peroxide]", "values": [{"measurement": "response of lesions", "value": "unresponsive"}]}]}
